This is an account of results in patent US20110313672A1, “CELLULAR ANTIOXIDANT ACTIVITY (CAA) ASSAY” (CORNELL UNIVERSITY, priority 2007, published 2011).

Where only a bound is given, the exact number is not on record here.

One series is described as follows: in vitro. Conditions: human. How it is done: (§1) Briefly, HepG2 cells are seeded at 4×10^4/well on a 96-well plate in 100 μL growth medium and incubated for 24 h at 37° C. The medium is removed and the cells are washed with PBS. Treatments of fruit extracts or antioxidant compounds in 100 μL treatment medium (Williams' Medium E supplemented with 2 mM L-glutamine and 10 mM Hepes) are applied to the cells and the plates are incubated at 37° C. for 24 h. The treatment medium is removed and the cells are washed with PBS. A volume of 50 μL/well methylene blue staining solution (98% HBSS, 0.67% glutaraldehyde, 0.6% methylene blue) is applied to each well and the plate is incubated at 37° C. for 1 h.
(§2) Excess dye is removed by immersing the plate in fresh deionized water until the water appears clear. The excess water should be tapped out of the wells and the plate allowed to air-dry briefly before addition of 100 μL elution solution (49% PBS, 50% ethanol, 1% acetic acid) to each well. The microplate is then placed on a bench-top shaker for 20 minutes to allow uniform elution. The absorbance is read at 570 nm with blank subtraction using, for example a MRX II DYNEX spectrophotometer (DYNEX Inc., Chantilly, Va.). Concentrations of pure compounds or fruit extracts that decrease the absorbance by more than 10% when compared to the control are considered to be cytotoxic.
(§3) Cytotoxicity was measured using the method of Oliver et al. (31) with modifications by our laboratory (32). […] The medium was removed and the cells were washed with PBS. Treatments of fruit extracts or antioxidant compounds in 100 μL treatment medium (Williams' Medium E supplemented with 2 mM L-glutamine and 10 mM Hepes) were applied to the cells and the plates were incubated at 37° C. for 24 h. The treatment medium was removed and the cells were washed with PBS. A volume of 50 μL/well methylene blue staining solution (98% HBSS, 0.67% glutaraldehyde, 0.6% methylene blue) was applied to each well and the plate was incubated at 37° C. for 1 h. The dye was removed and the plate was immersed in fresh deionized water three times, or until the water was clear. The water was tapped out of the wells and the plate was allowed to air-dry briefly before 100 μL elution solution (49% PBS, 50% ethanol, 1% acetic acid) was added to each well. The microplate was placed on a bench-top shaker for 20 minutes to allow uniform elution. The absorbance was read at 570 nm with blank subtraction using the MRX II DYNEX spectrophotometer (DYNEX Inc., Chantilly, Va.). Concentrations of pure compounds or fruit extracts that decreased the absorbance by more than 10% when compared to the control were considered to be cytotoxic.
(§4) The median cytotoxic concentration (CC50) was calculated for each fruit.
(§5) Briefly, HepG2 cells were seeded at 4×10^4/well on a 96-well plate in 100 μL growth medium and incubated for 24 h at 37° C. The medium was removed, and the cells were washed with PBS. Flavonoids in 100 μL growth medium were applied to the cells, and the plates were incubated at 37° C. for 24 h. The medium was removed, and the cells were washed with PBS before a volume of 50 μL/well methylene blue staining solution (98% HBSS, 0.67% glutaraldehyde, 0.6% methylene blue) was applied to each well, and the plate was incubated at 37° C. for 1 h. The dye was removed, and the plate was immersed in fresh deionized water until the water was clear. The water was tapped out of the wells, and the plate was allowed to air-dry briefly before 100 μL of elution solution (49% PBS, 50% ethanol, 1% acetic acid) was added to each well. The microplate was placed on a benchtop shaker for 20 min to allow uniform
(§6) elution. The absorbance was read at 570 nm with blank subtraction using the MRX II Dynex spectrophotometer (Dynex Inc., Chantilly, Va.). The median cytotoxic concentration (CC50) was calculated for each flavonoid.

Another series deals with HepG2 cells. Description: in vitro. The conditions noted are these: for CC50: read-out: cytotoxicity CC50, Example 3, median cytotoxic concentration. How it is done: as §1, §2, §3, §4, §5, §6
Setting [1] is: Example 1, dose at which the cell number is reduced by more than 10% after 24 h treatment.

As for `O=C(O[C@@H]1Cc2c(O)cc(O)cc2O[C@@H]1c1ccc(O)c(O)c1)c1cc(O)c(O)c(O)c1` [ECG, (−)-epicatechin gallate], the CC50 at 24 h in “in vitro” was more than 200 µM.

On to `O=c1c(O)c(-c2ccc(O)c(O)c2)oc2cc(O)cc(O)c12` [Quercetin, quercetin], for which the CC50 at 24 h in “in vitro” is more than 100 µM. For the same compound, in the series on HepG2 cells (human, 24 h), the “Cytotoxicity (cytotoxic concentration)” value was more than 20 µM.

`O=c1c(-c2ccc(O)cc2)coc2cc(O)cc(O)c12` [genistein] gave a CC50 at 24 h in “in vitro” of more than 100 µM.

`O=c1c(O)c(-c2ccccc2)oc2cc(O)cc(O)c12` [galangin]: the CC50 at 24 h in the series “in vitro” (HepG2 cells) was more than 80 µM.

Turning to (−)-epigallocatechin gallate [EGCG], the “Cytotoxicity (cytotoxic concentration)” value in the series with HepG2 cells (setting [1]) was more than 100 µM. In the series on HepG2 cells (24 h), the CC50 was more than 100 µM.

Turning to `O=c1c(O[C@@H]2O[C@H](CO)[C@@H](O)[C@H](O)[C@H]2O)c(-c2ccc(O)c(O)c2)oc2cc(O)cc(O)c12` [Q-3-G, quercetin-3-β-D-glucoside], the CC50 in the series with HepG2 cells (24 h) was more than 200 µM.

As to `O=C1C[C@@H](c2ccc(O)cc2)Oc2cc(O)cc(O)c21` [naringenin], the CC50 at 24 h in “in vitro” (HepG2 cells) is more than 200 µM.

Compound `O=C1c2c(O)cc(O)cc2O[C@H](c2ccc(O)c(O)c2)[C@H]1O` [Taxifolin, taxifolin] showed a CC50 at 24 h in the series “in vitro” (HepG2 cells) of more than 200 µM. For the same compound, the “Cytotoxicity (cytotoxic concentration)” value in the series with HepG2 cells (setting [1]) is 150 µM.

In the case of `O=c1cc(-c2ccc(O)c(O)c2)oc2cc(O)cc(O)c12` [Luteolin, luteolin], in the series “in vitro”, the CC50 at 24 h was more than 80 µM. Further, the “Cytotoxicity (cytotoxic concentration)” value in the series with HepG2 cells (human, 24 h) was 20 µM.

In the case of `O=c1c(O)c(-c2cc(O)c(O)c(O)c2)oc2cc(O)cc(O)c12` [Myricetin, myricetin], the CC50 at 24 h in the series “in vitro” is more than 200 µM. Moreover, the “Cytotoxicity (cytotoxic concentration)” value with HepG2 cells (human, 24 h) turned out to be 200 µM.

On to `Oc1cc(O)c2c(c1)O[C@H](c1cc(O)c(O)c(O)c1)[C@H](O)C2` [EGC, (−)-epigallocatechin], for which the CC50 at 24 h in the series “in vitro” was more than 200 µM.

Turning to `O=c1c(O)c(-c2ccc(O)cc2O)oc2cc(O)cc(O)c12` [morin], the CC50 at 24 h in “in vitro” (HepG2 cells) is more than 200 µM.

On to `O=c1c(O)c(-c2ccc(O)cc2)oc2cc(O)cc(O)c12` [Kaempferol, kaempferol], for which, in “in vitro”, the CC50 at 24 h was more than 100 µM. In addition, in the series on HepG2 cells (human, 24 h), the “Cytotoxicity (cytotoxic concentration)” value was 30 µM.
